Literature values, collected in paper PMC8091910 (Proteins, 2019).

Legend:
[1] = test system: pancreatic cancer cell (RWP1); details: human peptide library screen

Question: What does the source list for “RTLSQLYCSYGPLT [C-terminal MUS81 peptide]”?
Answer: reduction of cell viability [1]: significantly reduced cell viability; binding to EME1 (EME1): binds to EME1; disruption / inhibition of MUS81–EME1 complex (MUS81–EME1 complex): disrupting the MUS81–EME1 complex; reduction of cell viability in cancer cell lines (cancer cell lines): reducing cell viability in cancer cell lines
